Values of other authors in patent publication US20080287519A1, “Amorphous eletriptan hydrobromide and process for preparing it and other forms of eletriptan hydrobromide” (priority 2007, published 2008).

How the values were obtained:
[1] = test system: adrenergic beta receptors
[2] = test system: adrenergic alpha1 receptors
[3] = biological target: dopaminergic D2 receptors (Homo sapiens, UniProt P14416)
[4] = biological target: dopaminergic D1 receptors (Homo sapiens, UniProt P21728)
5-HT2B receptor = 5-HT2B receptor (Homo sapiens, UniProt P41595)
5-HT1E receptor = 5-HT1E receptor (Homo sapiens, UniProt P28566)
5-HT2A receptor = 5-HT2A receptor (Homo sapiens, UniProt P28223)
5-HT6 receptor = 5-HT6 receptor (Homo sapiens, UniProt P50406)
5-HT4 receptor = 5-HT4 receptor (Homo sapiens, UniProt Q13639)
5-HT5A receptor = 5-HT5A receptor (Homo sapiens, UniProt P47898)
5-HT1B receptor = 5-HT1B receptor (Homo sapiens, UniProt P28222)
5-HT7 receptor = 5-HT7 receptor (Homo sapiens, UniProt P34969)
5-HT2C receptor = biological target: T1, 5-HT2C receptor (Homo sapiens, UniProt P28335)
T1 sequence (P28335 33-458): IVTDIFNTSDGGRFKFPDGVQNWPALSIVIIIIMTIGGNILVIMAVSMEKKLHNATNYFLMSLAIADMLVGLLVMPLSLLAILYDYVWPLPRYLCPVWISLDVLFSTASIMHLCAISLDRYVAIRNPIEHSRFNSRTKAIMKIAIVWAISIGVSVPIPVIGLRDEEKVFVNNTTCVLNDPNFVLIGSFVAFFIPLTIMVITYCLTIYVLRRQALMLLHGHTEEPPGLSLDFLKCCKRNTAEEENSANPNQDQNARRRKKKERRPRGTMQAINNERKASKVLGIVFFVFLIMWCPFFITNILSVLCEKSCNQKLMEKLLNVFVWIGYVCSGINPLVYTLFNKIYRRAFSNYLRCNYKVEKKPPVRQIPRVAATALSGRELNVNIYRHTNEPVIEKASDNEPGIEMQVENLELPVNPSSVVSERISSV

[5] = test system: adrenergic alpha2 receptors
5-HT1F receptor = biological target: T2, 5-HT1F receptor (Homo sapiens, UniProt P30939)
T2 sequence (P30939 1-366): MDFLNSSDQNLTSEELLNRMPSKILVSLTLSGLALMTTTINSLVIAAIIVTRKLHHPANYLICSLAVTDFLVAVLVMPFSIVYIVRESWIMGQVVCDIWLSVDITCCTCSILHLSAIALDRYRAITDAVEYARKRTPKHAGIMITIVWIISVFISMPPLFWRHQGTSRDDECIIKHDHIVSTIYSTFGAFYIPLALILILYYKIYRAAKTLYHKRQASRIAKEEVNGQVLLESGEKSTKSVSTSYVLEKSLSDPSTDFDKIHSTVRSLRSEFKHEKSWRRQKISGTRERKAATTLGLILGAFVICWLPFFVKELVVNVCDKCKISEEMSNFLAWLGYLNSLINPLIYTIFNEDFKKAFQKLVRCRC

5-HT1A receptor = biological target: T3, 5-HT1A receptor (Homo sapiens, UniProt P08908)
T3 sequence (P08908 1-422): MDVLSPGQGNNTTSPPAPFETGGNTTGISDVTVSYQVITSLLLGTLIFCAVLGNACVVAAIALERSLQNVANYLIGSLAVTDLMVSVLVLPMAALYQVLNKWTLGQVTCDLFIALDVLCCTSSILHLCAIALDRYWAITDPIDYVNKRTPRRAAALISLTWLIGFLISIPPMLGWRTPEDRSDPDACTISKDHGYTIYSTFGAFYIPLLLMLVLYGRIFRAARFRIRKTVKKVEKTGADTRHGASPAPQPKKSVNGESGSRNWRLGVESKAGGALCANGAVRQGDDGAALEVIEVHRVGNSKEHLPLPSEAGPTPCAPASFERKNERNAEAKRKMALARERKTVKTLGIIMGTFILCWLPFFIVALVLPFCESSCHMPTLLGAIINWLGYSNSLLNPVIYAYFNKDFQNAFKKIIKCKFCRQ

5-HT1D receptor = 5-HT1D receptor (Homo sapiens, UniProt P28221)
Chain of 5-HT1D receptor (P28221 whole entry): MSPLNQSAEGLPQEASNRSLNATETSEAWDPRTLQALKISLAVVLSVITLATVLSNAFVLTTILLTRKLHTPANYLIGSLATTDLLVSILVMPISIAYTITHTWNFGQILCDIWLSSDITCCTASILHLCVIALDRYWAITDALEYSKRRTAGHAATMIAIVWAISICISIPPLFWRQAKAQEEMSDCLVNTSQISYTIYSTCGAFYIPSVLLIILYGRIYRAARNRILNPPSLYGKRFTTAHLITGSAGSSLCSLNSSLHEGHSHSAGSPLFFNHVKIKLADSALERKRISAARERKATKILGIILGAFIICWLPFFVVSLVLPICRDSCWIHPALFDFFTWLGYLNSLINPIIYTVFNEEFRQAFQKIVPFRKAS

Chain of 5-HT5A receptor (P47898 whole entry): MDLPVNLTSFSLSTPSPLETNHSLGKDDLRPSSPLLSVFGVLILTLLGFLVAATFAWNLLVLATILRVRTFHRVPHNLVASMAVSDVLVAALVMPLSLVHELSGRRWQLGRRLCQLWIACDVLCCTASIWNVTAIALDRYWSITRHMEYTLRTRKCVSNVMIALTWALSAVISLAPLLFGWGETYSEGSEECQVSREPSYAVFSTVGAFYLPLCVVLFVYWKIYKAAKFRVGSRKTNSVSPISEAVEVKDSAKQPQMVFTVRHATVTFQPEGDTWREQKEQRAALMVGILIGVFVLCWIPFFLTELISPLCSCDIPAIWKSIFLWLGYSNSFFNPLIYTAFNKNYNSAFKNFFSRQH
Chain of 5-HT1B receptor (P28222 whole entry): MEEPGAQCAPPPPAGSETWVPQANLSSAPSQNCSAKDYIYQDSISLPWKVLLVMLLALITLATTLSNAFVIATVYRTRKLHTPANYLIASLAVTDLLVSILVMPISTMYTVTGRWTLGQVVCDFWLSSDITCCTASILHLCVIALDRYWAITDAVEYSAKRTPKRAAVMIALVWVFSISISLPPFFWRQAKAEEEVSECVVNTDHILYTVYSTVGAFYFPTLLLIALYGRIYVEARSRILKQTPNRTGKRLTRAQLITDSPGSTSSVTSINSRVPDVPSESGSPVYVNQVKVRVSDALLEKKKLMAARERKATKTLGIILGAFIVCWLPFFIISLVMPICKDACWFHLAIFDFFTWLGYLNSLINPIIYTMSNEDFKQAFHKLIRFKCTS
Chain of 5-HT1E receptor (P28566 whole entry): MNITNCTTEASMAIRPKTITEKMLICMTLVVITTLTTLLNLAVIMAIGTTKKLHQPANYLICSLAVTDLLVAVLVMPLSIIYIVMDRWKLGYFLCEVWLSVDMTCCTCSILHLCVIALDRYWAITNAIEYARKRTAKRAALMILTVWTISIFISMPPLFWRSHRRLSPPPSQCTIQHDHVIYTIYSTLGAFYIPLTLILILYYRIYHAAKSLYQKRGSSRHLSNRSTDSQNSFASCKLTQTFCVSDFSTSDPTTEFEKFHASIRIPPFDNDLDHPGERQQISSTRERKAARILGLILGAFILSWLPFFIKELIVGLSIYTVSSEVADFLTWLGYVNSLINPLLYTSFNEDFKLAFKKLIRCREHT
Chain of 5-HT4 receptor (Q13639 whole entry): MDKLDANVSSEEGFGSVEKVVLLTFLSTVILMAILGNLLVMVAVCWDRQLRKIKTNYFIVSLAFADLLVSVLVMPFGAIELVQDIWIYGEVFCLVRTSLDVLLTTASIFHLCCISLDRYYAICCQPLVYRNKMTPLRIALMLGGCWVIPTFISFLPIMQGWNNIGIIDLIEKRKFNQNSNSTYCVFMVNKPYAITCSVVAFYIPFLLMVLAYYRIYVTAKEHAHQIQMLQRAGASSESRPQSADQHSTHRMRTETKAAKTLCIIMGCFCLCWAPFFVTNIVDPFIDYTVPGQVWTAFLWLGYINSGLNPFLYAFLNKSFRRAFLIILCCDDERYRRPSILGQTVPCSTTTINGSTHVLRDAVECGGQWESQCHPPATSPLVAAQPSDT
Chain of 5-HT7 receptor (P34969 whole entry): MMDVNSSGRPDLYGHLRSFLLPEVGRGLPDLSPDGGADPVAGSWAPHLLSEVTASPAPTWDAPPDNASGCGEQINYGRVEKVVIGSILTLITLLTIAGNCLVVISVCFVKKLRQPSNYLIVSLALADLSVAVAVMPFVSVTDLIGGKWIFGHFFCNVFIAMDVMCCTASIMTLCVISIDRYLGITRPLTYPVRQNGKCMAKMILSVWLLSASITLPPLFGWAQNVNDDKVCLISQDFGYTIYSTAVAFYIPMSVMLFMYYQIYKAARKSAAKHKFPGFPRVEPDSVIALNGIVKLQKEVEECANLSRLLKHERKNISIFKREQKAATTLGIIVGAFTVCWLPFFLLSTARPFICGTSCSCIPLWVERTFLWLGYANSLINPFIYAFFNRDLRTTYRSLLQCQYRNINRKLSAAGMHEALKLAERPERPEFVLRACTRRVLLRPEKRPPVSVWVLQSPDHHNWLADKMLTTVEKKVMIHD
Chain of 5-HT2A receptor (P28223 whole entry): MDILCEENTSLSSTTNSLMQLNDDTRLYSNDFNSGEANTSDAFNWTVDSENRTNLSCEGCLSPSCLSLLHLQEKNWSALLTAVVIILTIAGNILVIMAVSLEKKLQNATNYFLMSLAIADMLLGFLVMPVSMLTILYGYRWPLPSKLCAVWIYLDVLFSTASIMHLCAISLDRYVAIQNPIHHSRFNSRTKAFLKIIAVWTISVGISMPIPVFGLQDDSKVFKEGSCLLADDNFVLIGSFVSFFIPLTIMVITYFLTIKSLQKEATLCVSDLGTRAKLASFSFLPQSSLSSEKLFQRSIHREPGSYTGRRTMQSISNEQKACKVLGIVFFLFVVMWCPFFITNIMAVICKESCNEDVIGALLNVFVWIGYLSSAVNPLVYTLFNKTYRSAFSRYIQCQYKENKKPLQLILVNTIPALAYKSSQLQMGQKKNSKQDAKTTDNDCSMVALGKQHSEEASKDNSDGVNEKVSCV
Chain of dopaminergic D1 receptors (P21728 whole entry): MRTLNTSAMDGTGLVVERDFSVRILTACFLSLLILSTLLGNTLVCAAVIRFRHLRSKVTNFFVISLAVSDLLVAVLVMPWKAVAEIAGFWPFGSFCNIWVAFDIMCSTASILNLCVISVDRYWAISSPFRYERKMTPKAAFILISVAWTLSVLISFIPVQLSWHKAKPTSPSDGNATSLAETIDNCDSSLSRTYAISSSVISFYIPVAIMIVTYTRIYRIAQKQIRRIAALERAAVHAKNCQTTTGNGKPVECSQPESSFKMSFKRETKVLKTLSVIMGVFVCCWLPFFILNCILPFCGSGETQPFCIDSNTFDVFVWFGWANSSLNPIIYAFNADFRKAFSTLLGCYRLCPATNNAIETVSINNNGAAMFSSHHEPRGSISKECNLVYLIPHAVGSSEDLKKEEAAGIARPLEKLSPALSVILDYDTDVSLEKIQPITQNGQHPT
Chain of dopaminergic D2 receptors (P14416 whole entry): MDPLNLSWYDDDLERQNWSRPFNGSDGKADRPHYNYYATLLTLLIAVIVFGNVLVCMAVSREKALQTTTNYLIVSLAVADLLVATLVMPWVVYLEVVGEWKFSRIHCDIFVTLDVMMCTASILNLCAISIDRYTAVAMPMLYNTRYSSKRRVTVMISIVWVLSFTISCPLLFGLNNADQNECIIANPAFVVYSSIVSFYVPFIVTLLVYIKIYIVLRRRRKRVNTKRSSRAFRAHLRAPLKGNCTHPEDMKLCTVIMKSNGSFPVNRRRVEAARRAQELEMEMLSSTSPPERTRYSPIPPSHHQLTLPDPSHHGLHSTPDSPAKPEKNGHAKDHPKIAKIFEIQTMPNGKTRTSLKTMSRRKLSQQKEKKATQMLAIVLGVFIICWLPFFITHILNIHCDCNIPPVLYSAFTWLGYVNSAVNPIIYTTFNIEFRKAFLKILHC
Chain of 5-HT6 receptor (P50406 whole entry): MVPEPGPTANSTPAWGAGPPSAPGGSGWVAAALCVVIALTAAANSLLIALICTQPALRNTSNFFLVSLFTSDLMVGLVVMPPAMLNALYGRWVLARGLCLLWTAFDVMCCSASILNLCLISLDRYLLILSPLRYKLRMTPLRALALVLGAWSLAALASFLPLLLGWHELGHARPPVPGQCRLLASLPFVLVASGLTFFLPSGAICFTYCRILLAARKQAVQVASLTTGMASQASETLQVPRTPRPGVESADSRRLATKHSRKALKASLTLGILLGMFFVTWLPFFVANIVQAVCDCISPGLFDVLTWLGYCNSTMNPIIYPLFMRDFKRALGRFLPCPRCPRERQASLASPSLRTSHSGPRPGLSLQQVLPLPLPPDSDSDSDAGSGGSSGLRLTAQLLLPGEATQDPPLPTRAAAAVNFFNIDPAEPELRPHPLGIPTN
Chain of 5-HT2B receptor (P41595 whole entry): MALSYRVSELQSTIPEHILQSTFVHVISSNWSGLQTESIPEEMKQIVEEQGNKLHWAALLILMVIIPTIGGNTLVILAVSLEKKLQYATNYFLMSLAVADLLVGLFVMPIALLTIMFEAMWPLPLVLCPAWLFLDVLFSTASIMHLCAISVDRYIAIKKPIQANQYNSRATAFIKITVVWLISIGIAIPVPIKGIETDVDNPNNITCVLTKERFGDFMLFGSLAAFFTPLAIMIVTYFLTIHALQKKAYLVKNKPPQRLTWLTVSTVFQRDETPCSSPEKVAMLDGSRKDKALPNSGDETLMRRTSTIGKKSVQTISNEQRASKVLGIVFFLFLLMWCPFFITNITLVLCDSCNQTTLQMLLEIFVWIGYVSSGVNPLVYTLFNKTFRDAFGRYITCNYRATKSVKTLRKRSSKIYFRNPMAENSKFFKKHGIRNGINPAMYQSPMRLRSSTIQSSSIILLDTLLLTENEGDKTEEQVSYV

## CN1CCC[C@@H]1Cc1c[nH]c2ccc(CCS(=O)(=O)c3ccccc3)cc12 [Eletriptan, 3-(N-methyl-2(R)-pyrrolidinylmethyl)-5-(2-phenylsulphonylethyl)-1H-indole]
[1]
  affinity or pharmacological activity: no significant affinity or pharmacological activity
[2]
  affinity or pharmacological activity: no significant affinity or pharmacological activity
[3]
  affinity or pharmacological activity: no significant affinity or pharmacological activity
[4]
  affinity or pharmacological activity: no significant affinity or pharmacological activity
5-HT2B receptor
  affinity: modest affinity
5-HT1E receptor
  affinity: modest affinity
5-HT2A receptor
  affinity: little or no affinity
5-HT3 receptor
  affinity: little or no affinity
5-HT6 receptor
  affinity: little or no affinity
Opioid receptors
  affinity or pharmacological activity: no significant affinity or pharmacological activity
5-HT4 receptor
  affinity: little or no affinity
5-HT5A receptor
  affinity: little or no affinity
5-HT1B receptor
  affinity: high affinity
5-HT7 receptor
  affinity: modest affinity
5-HT2C receptor
  affinity: little or no affinity
[5]
  affinity or pharmacological activity: no significant affinity or pharmacological activity
5-HT1F receptor
  affinity: high affinity
5-HT1A receptor
  affinity: modest affinity
5-HT1D receptor
  affinity: high affinity
Muscarinic receptors
  affinity or pharmacological activity: no significant affinity or pharmacological activity
